Results published in patent publication US12275961B2, “Method for utilizing engineered dendritic cells to induce gut-homing regulatory T cells and treat gut inflammation” (LOMA LINDA UNIVERSITY, priority 2015, dated 2025).
“And” between values parts separate entries of the source, which are not always exact repeats. Equal entries are not always repeated.

Experiments:
[1] = tested on: foxp3 expression in activated T cells; test: foxp3 expression in T cells of splenocytes activated by anti-CD3/CD28 beads with exogenous calcitriol; type: cell-based, mouse; conditions: 72 hours
Excerpt: The naive mouse splenocytes can be cultured for 3 days with 1,25 Vitamin D (100 U/ml, Sigma-Aldrich) in the presence of human (h) IL-2 (50 U/ml) in complete RPMI 1640 medium (10% FBS; HyClone). The cells were harvested and stained for the FoxP3 expression with an anti-FoxP3 Ab (FJK-16s; eBioscience) and CCR9 expression.
A supraphysiological concentration of the active vitamin D metabolite, 1,25[OH]2D (calcitriol), may be necessary for calcitriol to induce foxp3 expression during T cell priming. Foxp3 is a protein that is involved in the regulatory pathway in the development and function of regulatory T cells. To determine whether a supraphysiological concentration is necessary, foxp3 expression in T cells during T cell activation in the presence of exogenous calcitriol can be examined. Splenocytes can be activated by anti-CD3/CD28 magnetic beads. In some cultures, 1,25[OH]2D can be added at a low (20 nM) or high (100 nM) concentration. Cells can be cultured for 72 hours and analyzed for foxp3 expression using flow cytometry. Flow cytometry can be performed by harvesting transduced mCYP27B1-positive DCs, washing them in PBS, resuspending them in the FACS buffer, and analyzing them for GFP expression on a flow cytometer. […] The normal range of human calcitriol serum concentration is 16˜56 pg/ml (0.038 nM 0.13 nM). […]

[2] = tested on: dextran sodium sulfate-induced inflammatory bowel disease; test: DSS-induced inflammatory bowel disease, six-group study (Example V); type: in vivo, mice
Excerpt: Then, the efficacy of the disclosed agents and method was confirmed in an additional study. […] Injections were made at day 7 post-disease induction by dextran sodium sulfate. All mice were sacrificed at day 10.

[3] = some patients; cited from earlier work
[4] = injection at day 7 post-DSS, sacrifice day 10

## C=C1C(=CC=C2CCC[C@]3(C)[C@@H]2CC[C@@H]3[C@H](C)CCCC(C)(C)O)C[C@@H](O)C[C@@H]1O [calcitriol, (1R,3S)-5-[2-[(1R,3aR,7aS)-1-[(2R)-6-hydroxy-6-methyl-heptan-2-yl]-7a-methyl-2,3,3a, 5,6,7-hexahydro-1H-inden-4-ylidene]ethylidene]-4-methylidene-cyclohexane-1,3-diol]
[1]; 20 nM
  foxp3 expression in activated T cells: slightly up regulated
[1]; 100 nM
  foxp3 expression in activated T cells: significantly augment
[2]; calcitriol 200 ng/day/mouse intraperitoneal
  increase in serum calcium: more than 30%
[2]; [4]
  colon lesions / mucosal integrity: did improve colon mucosal integrity
  hypercalcemia: severe hypercalcemia
[2]; injection at day 7 post-DSS, sacrifice day 10, calcitriol 200 ng/day/mouse intraperitoneal
  body weight loss: failed to prevent body weight loss
[3]
  serum calcitriol level tolerated without dose-limiting toxicity (hypercalcemia): up to 300 pg/ml and ≤ 0.72 nM
